Reference: BigSolDB 2.1

NC(=O)N/N=C/c1ccc([N+](=O)[O-])o1
solubility (mole fraction)
Conditions	in DMF	in acetone	in acetonitrile	in ethanol	in formamide	in isopropanol	in methanol	in n-propanol	in water
278.15 K	0.0219	0.000298	8.46e-05	6.97e-05	0.00169	7.04e-05	0.000148	8.53e-05	1.31e-05
283.15 K	0.0227	0.000345	0.000103	8.33e-05	0.00191	9.57e-05	0.000172	0.000106	1.62e-05
288.15 K	0.0235	0.000392	0.000123	0.0001	0.00208	0.000113	0.000201	0.00013	1.88e-05
293.15 K	0.0246	0.000443	0.000146	0.000121	0.00239	0.000131	0.000233	0.000149	2.29e-05
298.15 K	0.0265	0.000512	0.000176	0.000143	0.00267	0.000169	0.000282	0.000188	2.92e-05
303.15 K	0.028	0.000568	0.000211	0.000175	0.00298	0.000216	0.000326	0.000236	3.66e-05
308.15 K	0.0289	0.000647	0.000247	0.000213	0.00334	0.000262	0.000387	0.000285	4.5e-05
313.15 K	0.0305	0.000738	0.000288	0.000253	0.00364	0.000344	0.00044	0.000368	5.89e-05
